These are literature values, as cited in US20230364078A1, “METHOD OF PREPARING NANOPARTICLES COMPRISING POORLY WATER SOLUBLE DRUGS FOR TREATING HEPATITIS” (priority 2022, published 2023).

For data set [1] the following is noted: non-nanosized drug.
The conditions of data set [2]: solvent ethanol.
On the set-up of data set [3]: key: Class 1 has high solubility and permeability; Class 2 has low solubility but good permeability; Class 3 has high solubility but low permeability; Class 4 has low solubility and permeability. The following applies: water solubility and intestinal permeability.

Take `COC(=O)N[C@H](C(=O)N1CCC[C@H]1c1ncc(-c2ccc(-c3ccc(-c4cnc([C@@H]5CCCN5C(=O)[C@@H](NC(=O)OC)C(C)C)[nH]4)cc3)cc2)[nH]1)C(C)C` [Formula 1, Daclatasvir]: the solubility in water result in data set [1] is “insoluble in water”. Besides, the solubility to ethanol in data set [2] was 148 mg/mL. Further, in data set [3], the BCS class is 2.

Regarding `C=C[C@@H]1C[C@]1(NC(=O)[C@@H]1C[C@@H]2CN1C(=O)[C@H](C(C)(C)C)NC(=O)O[C@@H]1C[C@H]1CCCCCc1nc3ccc(OC)cc3nc1O2)C(=O)NS(=O)(=O)C1CC1` [Formula 2, Grazoprevir], the solubility in water result in data set [1] is reported as “very little soluble in water”. The solubility to ethanol in data set [2] is 15 mg/mL. For the same compound, the BCS class in data set [3] is listed as 2.

With `COC[C@H]1C[C@@H](c2nc(-c3ccc4c(c3)COc3cc5c(ccc6nc([C@@H]7CC[C@H](C)N7C(=O)[C@@H](NC(=O)OC)C(C)C)[nH]c65)cc3-4)c[nH]2)N(C(=O)[C@H](NC(=O)OC)c2ccccc2)C1` [Formula 4, Velpatasvir], in data set [2], the solubility to ethanol is 30 mg/mL. Besides, in data set [3], the BCS class is 4.

For `C=C[C@@H]1C[C@]1(NC(=O)[C@@H]1C[C@@H](Oc2ncc(OC)c3ccc(Cl)cc23)CN1C(=O)[C@@H](NC(=O)OC(C)(C)C)C(C)(C)C)C(=O)NS(=O)(=O)C1CC1` [Formula 3, Asunaprevir], in data set [1], the solubility in water entry was “very little soluble in water”. Besides, in data set [2], the solubility to ethanol is 100 mg/mL. Further, in data set [3], the BCS class is 2.
